Assay results: paper PMC3478992, “Cloning and characterization of a novel 2-ketoisovalerate reductase from the beauvericin producer Fusarium proliferatum LF061” (BMC Biotechnology, 2012)

Target: T1, KivRFp (2-ketoisovalerate reductase) (Fusarium proliferatum, UniProt I3VQI5)
T1 construct: full length, 452 residues, 52 kDa, N-terminal His-tag (pET28a), codon-optimised synthetic gene, E. coli BL21(DE3), Ni-NTA purified
Assay: spectrophotometric NADPH oxidation at […] nm
Type: biochemical
Conditions: 0.7 mM 2-Kiv, 50 mM sodium phosphate pH 7.0, 35 °C

T1 sequence (I3VQI5 entry or part of it): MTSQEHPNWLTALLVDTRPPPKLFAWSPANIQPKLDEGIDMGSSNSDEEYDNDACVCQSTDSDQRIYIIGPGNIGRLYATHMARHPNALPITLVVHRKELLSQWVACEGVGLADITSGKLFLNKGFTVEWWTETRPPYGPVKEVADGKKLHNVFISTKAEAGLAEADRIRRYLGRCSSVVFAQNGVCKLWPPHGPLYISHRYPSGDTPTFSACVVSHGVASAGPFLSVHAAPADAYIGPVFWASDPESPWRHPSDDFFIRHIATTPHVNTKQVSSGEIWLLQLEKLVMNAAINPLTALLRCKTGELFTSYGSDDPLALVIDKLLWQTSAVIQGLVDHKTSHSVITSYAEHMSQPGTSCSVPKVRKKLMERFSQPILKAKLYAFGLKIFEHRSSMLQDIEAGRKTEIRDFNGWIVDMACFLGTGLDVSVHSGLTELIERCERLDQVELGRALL

Compound	spectrophotometric NADPH oxidation at 340 nm (0.29 mM NADPH)	spectrophotometric NADPH oxidation at 340 nm
CC(C)C(=O)C(=O)O [2-Kiv]	The enzyme exhibited the highest activity towards 2-Kiv as substrate	–
NC(=O)C1=CN([C@@H]2O[C@H](COP(=O)(O)OP(=O)(O)OC[C@H]3O[C@@H](n4cnc5c(N)ncnc54)[C@H](OP(=O)(O)O)[C@@H]3O)[C@@H](O)[C@H]2O)C=CC1 [NADPH]	–	KivRFp showed higher coenzyme specificity with respect to NADPH than NADH
